Data on 14 molecules can be found in patent US10098887B2, “Antiviral compounds and methods of use thereof” (Trana Discovery, Inc., priority 2010, dated 2018).

The nature of this assay: assays described herein (not specified).
As for `CCc1ccc(C2=CC(=O)c3ccccc3C2=O)cc1` [Compound 26, 2-(4-ethylphenyl)naphthoquinone], the “active in the assays described herein” value is recorded as “active”. The same measure for `O=C(O)CCCCC1SCC2NC(=O)NC21` (centres unmarked) [Compound 8, 5-(2-oxohexahydro-1H-thieno[3,4-d]imidazol-4-yl)pentanoic acid]: “active”; for `O=C1c2ccc([N+](=O)[O-])cc2C(=O)N1C1CC2CCC1C2` (centres unmarked) [Compound 57, 2-bicyclo[2.2.1]hept-2-yl-5-nitro-1H-isoindole-1,3(2H)-dione]: “active”. Regarding `O=C1NC(=O)N(c2ccc(Cl)cc2)C(=O)C1=Cc1ccc([N+](=O)[O-])o1` [Compound 65, 1-(4-chlorophenyl)-5-[(5-nitro-2-furyl)methylene]-2,4,6(1H,3H,5H)-pyrimidinetrione], the “active in the assays described herein” value was “active”.

For the molecule `CNC(=S)N1N=C(c2ccc(OC)cc2)CC1c1ccc(N(C)C)cc1` (centres unmarked) [Compound 40, 5-[4-(dimethylamino)phenyl]-3-(4-methoxyphenyl)-N-methyl-4,5-dihydro-1H-pyrazole-1-carbothioamide], the “active in the assays described herein” value is on record as “active”. In the case of `CCc1ccc(N2N=C(C)C(=Cc3ccc(N4CCOCC4)cc3)C2=O)cc1` [Compound 32, 2-(4-ethylphenyl)-5-methyl-4-[4-(4-morpholinyl)benzylidene]-2,4-dihydro-3H-pyrazol-3-one], the “active in the assays described herein” value is “active”. As to `CN(C)c1ccc(C(O)(c2ccc(N(C)C)cc2)c2ccc(N(C)C)cc2)cc1` [Compound 7, tris[4-(dimethylamino)phenyl]methanol], the “active in the assays described herein” value is recorded as “active”. On to `O=c1cc2oc3cc(O)c(O)cc3c(-c3ccc([N+](=O)[O-])o3)c-2cc1O` [Compound 38, 2,6,7-trihydroxy-9-(5-nitro-2-furyl)-3H-xanthen-3-one], for which the “active in the assays described herein” value is reported as “active”. As to `Oc1ccc(C(c2c[nH]c3ccccc23)c2c[nH]c3ccccc23)cc1O` [Compound 86, 4-(di-1H-indol-3-ylmethyl)-1,2-benzenediol], the “active in the assays described herein” value is “active”. Take `COc1ccc(C(=C2C=CC=C2)c2ccc(OC)cc2)cc1` [Compound 46, 1,1′-(2,4-cyclopentadien-1-ylidenemethylene)bis(4-methoxybenzene)]: the “active in the assays described herein” value is “active”.

In the case of `CCOc1ccc(C(=O)c2ccc(N3CC(C)OC(C)C3)c([N+](=O)[O-])c2)cc1` (centres unmarked) [Compound 102, [4-(2,6-dimethyl-4-morpholinyl)-3-nitrophenyl](4-ethoxyphenyl)methanone], the “active in the assays described herein” value is “active”. Regarding `O=[N+]([O-])c1ccccc1SNc1ccc2c(c1)OCO2` [Compound 75, 5-{[(2-nitrophenyl)thio]amino}-1,3-benzodioxole], the “active in the assays described herein” value is recorded as “active”. The same measure for `O=C(c1cccs1)N1CCN(c2ccc([N+](=O)[O-])c(N3CCCC3)c2)CC1` [Compound 114, 1-[4-nitro-3-(1-pyrrolidinyl)phenyl]-4-(2-thienylcarbonyl)piperazine]: “active”.

For the molecule `Cn1cccc1C=NN1CCN(Cc2cccc3ccccc23)CC1` [Compound 83, N-[(1-methyl-1H-pyrrol-2-yl)methylene]-4-(1-naphthylmethyl)-1-piperazinamine], the “active in the assays described herein” value is reported as “active”.
